The source made the active and inactive calls.
What was measured:
[1] = target: T1, Ubiquitin-conjugating enzyme E2 N (Homo sapiens, UniProt P61088); format: functional;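 note: Dose-response confirmation in a TR-FRET assay detecting UBC13-driven polyubiquitin chain formation, inhibition measured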
T1 sequence (P61088 whole entry): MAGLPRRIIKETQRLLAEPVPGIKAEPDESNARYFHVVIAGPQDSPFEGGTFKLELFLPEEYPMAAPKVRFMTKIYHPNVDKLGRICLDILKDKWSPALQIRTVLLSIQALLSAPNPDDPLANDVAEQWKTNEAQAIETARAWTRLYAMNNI

[2] = cytotoxicity in HEK-293T cells, dose response, cytotoxicity control for BCR NF-kB inhibitor project, luminescence, B-cell screen hits (AID 489021); format: functional, cell-based;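 note: HEK-293T cells carrying an NF-kB luciferase reporter; cells exposed to compound for about 14 hours before viability readout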
Paired box protein Pax-8 = Paired box protein Pax-8 (Homo sapiens, UniProt Q06710); assay: inhibitors of PAX8-driven TPO luciferase reporter, dose response, RMG-I cells, cherry-pick (AID 687027); format: functional, cell-based;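 note: luciferase reporter driven by Pax8 target thyroperoxidase promoter measured by SteadyGlo luminescence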
Paired box protein Pax-8, sequence (Q06710 whole entry, the tested form may be a part): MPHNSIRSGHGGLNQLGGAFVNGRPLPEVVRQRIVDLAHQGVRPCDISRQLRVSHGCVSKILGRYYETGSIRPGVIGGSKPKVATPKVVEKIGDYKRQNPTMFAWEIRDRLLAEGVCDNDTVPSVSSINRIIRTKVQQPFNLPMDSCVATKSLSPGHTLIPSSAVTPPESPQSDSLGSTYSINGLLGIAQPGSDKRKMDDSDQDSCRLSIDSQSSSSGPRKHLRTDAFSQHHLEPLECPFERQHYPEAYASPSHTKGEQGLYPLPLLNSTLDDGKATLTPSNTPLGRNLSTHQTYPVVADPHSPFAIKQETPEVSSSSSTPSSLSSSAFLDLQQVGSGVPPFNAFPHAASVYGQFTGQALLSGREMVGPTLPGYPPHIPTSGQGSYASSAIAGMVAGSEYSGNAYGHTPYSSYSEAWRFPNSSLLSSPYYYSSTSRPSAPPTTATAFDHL

[3] = inhibitors of HIV Env-driven cell fusion, dose response, cherry-pick (AID 652057); format: functional, cell-based
[4] = inhibitors of clade B AD8 Env fusion, dose response, cell-based, cherry-pick (AID 652062); format: functional;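 note: luciferase signal from cell-cell fusion driven by HIV-1 clade B AD8 Env; potency is for inhibitors of fusion seen as a drop in luminescence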
[5] = M. tuberculosis H37Rv growth inhibitors, H37Rv strain (AID 1626); format: functional
INS1 = assay: beta cell apoptosis inhibitors, cytokine rescue, dose response, luminescence, retest (AID 449756); format: functional, cell-based; settings: Rattus norvegicus;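 note: cell death triggered by IL-1 beta plus TNF-alpha plus IFN-gamma mixture; protective hits raise ATP signal compared with cytokine alone wells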
[6] = Shn3 3'UTR reporter inhibitors, dose response, cell-based, Clone20 osteoblasts, firefly luciferase, cherry-picked (AID 624132); format: functional;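 note: firefly luciferase luminescence from reporter carrying the Shn3 3'UTR in osteoblasts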
[7] = HepG2 cell cytotoxicity, dose response, cytotoxicity control for Shn3 inhibitor project, CellTiter-Glo, cherry-picked (AID 624134); format: functional, cell-based
[8] = control 3'UTR Renilla luciferase suppression, dose response, counter-screen for Shn3 inhibitor project, cell-based, Clone20-Shn3RL, cherry-picked (AID 624133); format: functional
H9c2 = assay: cells; format: functional, cell-based; settings: Rattus norvegicus, H9c2, Myocardium;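 note: confirmatory concentration-response retest of ultra-high-throughput screening hits for modulation of myocardial damage; cell death induced by hydrogen peroxide oxidative stress; compound pretreatment for 60 min then peroxide exposure for 2 h; potency is for protecting the cells against peroxide damage rather than for killing them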
[9] = target: FAD-linked sulfhydryl oxidase ALR (Homo sapiens, UniProt P55789); assay: inhibitors of human ALR sulfhydryl oxidase, dose response, biochemical, H2O2 detection, luminescence, cherry-pick (AID 493248)
FAD-linked sulfhydryl oxidase ALR, sequence (P55789 whole entry): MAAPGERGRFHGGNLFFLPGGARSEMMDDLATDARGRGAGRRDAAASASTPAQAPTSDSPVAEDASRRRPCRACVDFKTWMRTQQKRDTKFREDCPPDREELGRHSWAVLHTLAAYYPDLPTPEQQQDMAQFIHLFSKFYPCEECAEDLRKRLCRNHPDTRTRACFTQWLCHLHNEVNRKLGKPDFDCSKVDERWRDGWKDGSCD

[10] = target: Protein-tyrosine kinase 2-beta (Homo sapiens, UniProt Q14289);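 note: potency of inhibitors of PYK2 kinase phosphorylation of poly-GT substrate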
Protein-tyrosine kinase 2-beta, sequence (Q14289 whole entry): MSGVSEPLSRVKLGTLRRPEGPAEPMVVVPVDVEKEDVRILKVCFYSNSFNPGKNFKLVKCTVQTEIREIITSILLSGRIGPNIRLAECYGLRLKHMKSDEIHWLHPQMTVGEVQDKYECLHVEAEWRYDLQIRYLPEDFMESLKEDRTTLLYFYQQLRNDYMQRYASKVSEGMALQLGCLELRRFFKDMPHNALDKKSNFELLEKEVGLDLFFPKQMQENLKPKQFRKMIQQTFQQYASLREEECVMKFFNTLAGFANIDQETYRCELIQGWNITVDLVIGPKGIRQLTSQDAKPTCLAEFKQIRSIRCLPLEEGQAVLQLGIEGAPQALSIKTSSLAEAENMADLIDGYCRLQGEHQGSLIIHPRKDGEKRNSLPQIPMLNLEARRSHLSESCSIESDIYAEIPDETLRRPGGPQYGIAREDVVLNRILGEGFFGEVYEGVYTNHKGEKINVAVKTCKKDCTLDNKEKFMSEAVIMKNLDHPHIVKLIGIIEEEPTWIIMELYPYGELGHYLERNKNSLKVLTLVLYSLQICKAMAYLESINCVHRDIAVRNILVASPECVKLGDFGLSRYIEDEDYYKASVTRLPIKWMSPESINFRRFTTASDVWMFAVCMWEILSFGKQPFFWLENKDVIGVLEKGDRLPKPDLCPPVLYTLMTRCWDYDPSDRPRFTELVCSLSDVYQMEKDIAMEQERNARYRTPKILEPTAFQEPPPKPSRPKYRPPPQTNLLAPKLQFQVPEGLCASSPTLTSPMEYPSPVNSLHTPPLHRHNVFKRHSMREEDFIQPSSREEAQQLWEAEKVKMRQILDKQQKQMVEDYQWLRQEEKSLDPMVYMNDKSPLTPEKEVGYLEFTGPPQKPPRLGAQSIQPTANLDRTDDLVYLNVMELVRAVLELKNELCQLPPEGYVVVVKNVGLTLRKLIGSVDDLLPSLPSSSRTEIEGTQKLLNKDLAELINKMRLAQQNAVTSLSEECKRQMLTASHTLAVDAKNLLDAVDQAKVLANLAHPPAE

Large T antigen = Large T antigen (Simian virus 40, UniProt P03070); format: functional, Betapolyomavirus macacae;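 note: Confirmatory-stage PubChem screen for compounds that inhibit SV40 T antigen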
Large T antigen, sequence (P03070 whole entry): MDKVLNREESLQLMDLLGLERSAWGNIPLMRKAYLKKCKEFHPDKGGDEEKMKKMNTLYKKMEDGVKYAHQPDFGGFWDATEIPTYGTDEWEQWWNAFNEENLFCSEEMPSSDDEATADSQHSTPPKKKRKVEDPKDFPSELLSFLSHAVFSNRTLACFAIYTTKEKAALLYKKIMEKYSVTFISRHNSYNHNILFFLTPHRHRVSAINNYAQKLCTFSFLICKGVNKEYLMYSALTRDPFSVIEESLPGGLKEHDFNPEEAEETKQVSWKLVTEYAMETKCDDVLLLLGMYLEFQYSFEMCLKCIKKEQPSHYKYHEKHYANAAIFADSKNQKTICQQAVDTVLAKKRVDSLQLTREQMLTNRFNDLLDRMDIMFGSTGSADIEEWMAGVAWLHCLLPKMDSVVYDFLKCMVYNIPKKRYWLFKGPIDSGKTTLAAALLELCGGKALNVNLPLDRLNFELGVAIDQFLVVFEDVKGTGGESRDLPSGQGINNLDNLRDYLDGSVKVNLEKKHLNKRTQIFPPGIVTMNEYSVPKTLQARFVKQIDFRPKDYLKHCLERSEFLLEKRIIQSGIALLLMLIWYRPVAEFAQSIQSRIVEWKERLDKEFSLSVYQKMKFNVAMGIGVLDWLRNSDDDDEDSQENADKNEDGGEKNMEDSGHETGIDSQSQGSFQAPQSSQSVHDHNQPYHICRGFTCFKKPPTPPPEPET

[11] = target: T2, Replicative DNA helicase DnaB (Mycobacterium tuberculosis, UniProt P9WMR3); assay: DnaB intein splicing inhibitors, dose response, biochemical, cell-free fluorescence (AID 449749); format: functional
T2 sequence (P9WMR3 whole entry): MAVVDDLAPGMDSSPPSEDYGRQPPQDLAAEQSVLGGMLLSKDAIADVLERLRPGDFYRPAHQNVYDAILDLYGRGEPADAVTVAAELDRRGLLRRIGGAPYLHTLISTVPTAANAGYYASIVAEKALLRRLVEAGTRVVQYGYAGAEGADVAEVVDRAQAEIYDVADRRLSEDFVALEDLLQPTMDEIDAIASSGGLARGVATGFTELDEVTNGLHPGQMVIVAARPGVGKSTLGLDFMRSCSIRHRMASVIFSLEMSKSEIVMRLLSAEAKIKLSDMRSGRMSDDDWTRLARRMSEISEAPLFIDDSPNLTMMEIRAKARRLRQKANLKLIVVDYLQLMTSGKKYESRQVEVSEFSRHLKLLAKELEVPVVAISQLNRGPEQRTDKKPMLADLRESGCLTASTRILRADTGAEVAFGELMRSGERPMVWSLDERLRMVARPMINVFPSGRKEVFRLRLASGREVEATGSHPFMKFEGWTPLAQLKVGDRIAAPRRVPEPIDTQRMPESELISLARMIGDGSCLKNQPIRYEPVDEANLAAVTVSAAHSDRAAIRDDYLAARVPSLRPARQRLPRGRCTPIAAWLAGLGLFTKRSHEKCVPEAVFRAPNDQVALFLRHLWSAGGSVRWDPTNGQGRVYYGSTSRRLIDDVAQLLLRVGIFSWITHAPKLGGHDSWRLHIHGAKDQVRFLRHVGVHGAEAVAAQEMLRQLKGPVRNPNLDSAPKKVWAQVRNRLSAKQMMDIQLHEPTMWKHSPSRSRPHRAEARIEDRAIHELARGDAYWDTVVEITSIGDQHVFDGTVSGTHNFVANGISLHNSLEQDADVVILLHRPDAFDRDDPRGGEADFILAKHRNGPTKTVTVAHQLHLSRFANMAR

Protein RecA = target: T3, Protein RecA (Mycobacterium tuberculosis, UniProt P9WHJ3); assay: Fluorescence Cell-Free Homogeneous Dose Retest to Identify Inhibitors of RecA-Intein Splicing Activity. [Related pubchem assays (depositor defined):AID2097, AID2223, AID489010, AID492950]; format: functional
T3 sequence (P9WHJ3 whole entry): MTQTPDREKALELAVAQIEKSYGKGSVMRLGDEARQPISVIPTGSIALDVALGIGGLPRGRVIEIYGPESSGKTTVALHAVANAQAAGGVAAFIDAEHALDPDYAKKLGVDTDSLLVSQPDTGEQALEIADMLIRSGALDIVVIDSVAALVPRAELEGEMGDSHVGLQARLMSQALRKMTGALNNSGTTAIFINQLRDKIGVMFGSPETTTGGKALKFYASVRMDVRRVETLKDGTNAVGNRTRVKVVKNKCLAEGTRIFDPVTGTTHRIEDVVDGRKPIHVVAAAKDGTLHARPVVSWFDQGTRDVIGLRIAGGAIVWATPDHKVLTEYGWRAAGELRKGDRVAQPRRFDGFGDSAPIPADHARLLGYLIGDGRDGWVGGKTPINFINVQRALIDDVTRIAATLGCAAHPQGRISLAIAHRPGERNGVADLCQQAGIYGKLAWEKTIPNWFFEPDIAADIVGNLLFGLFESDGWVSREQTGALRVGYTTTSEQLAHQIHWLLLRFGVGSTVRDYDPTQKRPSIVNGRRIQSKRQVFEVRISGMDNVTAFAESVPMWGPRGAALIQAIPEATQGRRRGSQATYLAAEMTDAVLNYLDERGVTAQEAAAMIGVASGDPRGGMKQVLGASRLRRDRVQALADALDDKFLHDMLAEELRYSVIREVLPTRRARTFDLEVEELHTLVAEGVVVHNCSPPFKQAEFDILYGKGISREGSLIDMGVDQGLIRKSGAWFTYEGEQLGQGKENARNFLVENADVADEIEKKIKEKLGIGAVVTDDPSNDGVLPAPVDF

[12] = THP-1 cell cytotoxicity, dose response, cytotoxicity control for Vif-APOBEC3G degradation inhibitor project, THP-1 cells (AID 1117359); format: functional; settings: Human immunodeficiency virus 1, THP-1
[13] = HEp-2 cell cytotoxicity, dose response, cytotoxicity control for RSV inhibitor project, HTS (AID 2410); format: functional; settings: human respiratory syncytial virus
[14] = Luminescence Cell-Based Dose Retest to Confirm Inhibitors of Cancer Stem Cells. [Related pubchem assays (depositor defined):AID2717, AID2721]; format: functional; settings: Homo sapiens
[15] = target: T4, Microphthalmia-associated transcription factor (Homo sapiens, UniProt O75030); assay: TRPM1 promoter luciferase signal decrease, dose response, MITF inhibitor project, cell-based, SK-MEL-5, cherry-picked, set 3 (AID 493073); format: functional
T4 sequence (O75030 whole entry): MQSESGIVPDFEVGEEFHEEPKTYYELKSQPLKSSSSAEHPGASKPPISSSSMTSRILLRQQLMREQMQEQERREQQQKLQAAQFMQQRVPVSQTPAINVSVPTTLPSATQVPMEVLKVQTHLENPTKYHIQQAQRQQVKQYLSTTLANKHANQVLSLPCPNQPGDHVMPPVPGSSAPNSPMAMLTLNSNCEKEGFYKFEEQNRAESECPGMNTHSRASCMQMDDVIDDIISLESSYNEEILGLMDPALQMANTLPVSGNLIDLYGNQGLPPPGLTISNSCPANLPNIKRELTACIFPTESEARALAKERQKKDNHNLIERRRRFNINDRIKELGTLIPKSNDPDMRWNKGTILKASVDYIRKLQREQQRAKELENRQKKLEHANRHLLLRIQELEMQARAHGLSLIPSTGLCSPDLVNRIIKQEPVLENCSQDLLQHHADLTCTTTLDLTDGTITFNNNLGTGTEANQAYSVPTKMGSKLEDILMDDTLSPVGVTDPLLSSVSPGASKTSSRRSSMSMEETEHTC

[16] = target: Heat shock protein HSP 90-alpha (Homo sapiens, UniProt P07900); format: functional, organism-based
[17] = LGR2 antagonists, dose response, cell-based, HEK293, CRE-luciferase reporter, cherry pick, set 2 (AID 743343); format: functional;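 note: transfected cells were stimulated with diluted bursicon conditioned medium after compound addition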
[18] = MC4R antagonists, dose response, counter-screen for LGR2 antagonist project, cell-based, plate reader, cherry pick (AID 743444); format: functional;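 note: transfected HEK 293 cells stimulated with alpha-MSH peptide; potency of inhibitors of the alpha-MSH evoked signal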
[19] = growth suppression of PTEN-null colon cells, dose response, cell-based, HCT116 PTEN knockout (AID 1047); format: functional;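 note: HCT116 colon tumor cells with PTEN knocked out; cells exposed to compound for 60 hours before readout; potency for loss of cell viability measured by luminescence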
[20] = growth suppression of beta-catenin-knockout colon cells, dose response, cell-based, HCT116, human colon tumor (AID 1045); format: functional;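 note: HCT116 colon tumor cells with beta catenin knocked out; cells exposed to compound for 60 hours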
[21] = target: T5, Heat shock factor protein 1 (Mus musculus, UniProt P38532); assay: HSF1 potentiators in luciferase reporter cells, confirmation, cell-based, NIH3T3, luminescence, dose retest (AID 435004); format: functional;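 note: stress induced by proteasome inhibitor MG132 added 30 min after compound; luciferase reporter driven by HSF1 response element in NIH3T3 cells; actives raise luminescence as potentiators of the MG132 stress response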
T5 sequence (P38532 whole entry): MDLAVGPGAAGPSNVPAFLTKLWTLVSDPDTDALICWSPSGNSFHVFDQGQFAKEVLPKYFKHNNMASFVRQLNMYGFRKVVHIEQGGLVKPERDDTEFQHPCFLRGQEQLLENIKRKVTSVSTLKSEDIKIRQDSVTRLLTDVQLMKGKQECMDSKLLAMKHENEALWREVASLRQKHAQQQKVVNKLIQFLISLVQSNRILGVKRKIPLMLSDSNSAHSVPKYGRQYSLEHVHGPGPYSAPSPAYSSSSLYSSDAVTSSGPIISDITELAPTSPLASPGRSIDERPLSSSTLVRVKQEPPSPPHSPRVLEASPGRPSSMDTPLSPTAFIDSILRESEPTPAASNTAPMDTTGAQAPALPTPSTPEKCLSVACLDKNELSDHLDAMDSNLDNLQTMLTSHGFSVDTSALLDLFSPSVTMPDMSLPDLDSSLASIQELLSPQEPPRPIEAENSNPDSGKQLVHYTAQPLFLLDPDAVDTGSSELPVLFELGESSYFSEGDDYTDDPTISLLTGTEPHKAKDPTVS

COc1cc(-c2nc3ccc(N4CCN(C)CC4)cc3[nH]2)cc(OC)c1OC
IC50 [1]: > 20 µM (inactive) | IC50 [2]: > 80 µM (inactive)

O=C(Nc1cccc(Br)c1)c1ccc2c(c1)SC1=NS(=O)(=O)CCN12
IC50 [2]: > 80 µM (inactive) | AC50 (Paired box protein Pax-8): 3.32 µM (active)

C[C@@H]1CN([C@@H](C)CO)C(=O)c2cccc(NS(=O)(=O)c3cccs3)c2O[C@@H]1CN(C)Cc1ccc(C(F)(F)F)cc1
AC50 [3]: 2.04 µM (active) | AC50 [4]: 16.7 µM (active)

N#Cc1ccc(CN2CCN(C(=O)CNC(=O)Cc3cccc4ccccc34)CC2)cc1
AC50 [3]: 57.1 µM (active) | AC50 [4]: 10.3 µM (active)

COC(=O)c1ccc(NC(=O)CSC2=NCCN2)cc1
IC50 [5]: > 100 µM (active)

CC(=O)c1cn(CCOc2cc(C)ccc2C)c2ccccc12
IC50 [2]: > 80 µM (inactive) | AC50 (INS1): 3.62 µM (active) | AC50 [6]: 1.18 µM (active) | AC50 [7]: 2.19 µM (active) | AC50 [8]: 2.03 µM (active)

COc1ccc2c(c1OC)C(=O)N1c3ccccc3C(=O)N(c3ccccc3)C21 (configuration not stated)
IC50 (H9c2): > 79 µM (inactive)

O=c1[nH]c2ccccc2c2ccccc12
IC50 (H9c2): > 79 µM (inactive)

CCOc1ccc(N2C(=O)c3ccccc3C2=O)cc1
IC50 [5]: > 100 µM (active)

N#Cc1ccccc1COc1ccc(/C=C/C(=O)O)cc1
IC50 [2]: > 80 µM (inactive)

CNC(=O)c1cc(Nc2nnc(-c3ccc(O)cc3)c3ccccc23)ccc1OC
AC50 [9]: 3.86 µM (active) | IC50 [2]: > 80 µM (inactive)

COc1nnc(-c2ccc(N3CCCCC3)c(NC(C)=O)c2)c2ccccc12
IC50 [10]: > 69.5 µM (not active)

Cc1cc2cc3c(N)[nH]nc3nc2cc1C
IC50 (Large T antigen): 30.3 µM (active) | IC50 [10]: > 69.5 µM (not active)

COc1cc(C2Nc3ccc4ncccc4c3C3=C2C(=O)CC(C)(C)C3)cc(OC)c1O (configuration not stated)
IC50 [10]: 16.4 µM (not active)

Cc1cc(NC(=O)CCCN2C(=O)/C(=C/c3ccccc3Cl)SC2=S)no1
IC50 [2]: > 80 µM (inactive)

CC(C)CC(NC(=O)CCl)c1ccccc1 (configuration not stated)
AC50 [11]: 320 µM (active) | EC50 (Protein RecA): 4.29 µM (active) | CC50 [12]: > 40 µM (active)

CC1CCCCC1NC(=O)/C(C#N)=C/c1ccccc1F (configuration not stated)
CC50 [13]: 21.3 µM (active) | AC50 [14]: 5.53 µM (active) | AC50 [15]: 14.4 µM (active) | AC50 [16]: 0.94 µM (active)

COCCCNc1ccn2nc(-c3ccccc3)cc2n1
AC50 [17]: 7.19 µM (active) | AC50 [18]: 6.82 µM (active)

CCOC(=O)c1cccc(C2=C(CNC(=O)c3cccnc3)[C@H]3CC[C@@H](C2)N3Cc2ccccc2)c1
IC50 (H9c2): 35.3 µM (inactive)

O=C1CCNc2ccc(-c3ccccc3)cc21
IC50 [5]: > 100 µM (active)

CC1(C)CC2CC(C)(CN2C(=O)COC(=O)c2nnc(O)c3ccccc23)C1 (configuration not stated)
IC50 (H9c2): 10.7 µM (active)

COc1cc(/C=C(\C#N)C(=O)NC2CCCCC2C)ccc1OS(=O)(=O)c1ccc(C)cc1 (configuration not stated)
IC50 [5]: > 100 µM (active) | EC50 [19]: 10.7 µM (active) | EC50 [20]: 9.24 µM (active) | AC50 [14]: 5.32 µM (active) | EC50 [21]: 2.17 µM (active)
